Assays:
[1] = system: JAK1-dependent STAT6 phosphorylation downstream of IL-13 stimulation in BEAS-2B human bronchial epithelial cells; experiment: JAK1 pathway assay in BEAS-2B cells (IL-13-pSTAT6, MSD); type: cell-based; settings: read-out: IL13-pSTAT6 EC50 (uM)_BEAS-2B
Method in brief: (§1)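 BEAS-2B: 1 h, complete growth medium, 100,000 cells/well. TF-1: 30 min, serum-free OptiMEM after overnight GM-CSF starvation, 300,000 cells/well. EC50 reported.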

[2] = molecular target: isolated recombinant JAK1 kinase domain (Homo sapiens (Human), UniProt P23458); experiment: JAK1 enzyme assay (Caliper LabChip, peptide phosphorylation); type: biochemical; settings: isolated recombinant JAK1 kinase domain, 25 μM ATP
[3] = molecular target: isolated recombinant JAK2 kinase domain (Homo sapiens (Human), UniProt O60674); experiment: JAK2 enzyme assay (Caliper LabChip, peptide phosphorylation); type: biochemical; settings: 25 μM ATP
[4] = system: JAK1-dependent STAT6 phosphorylation downstream of IL-13 stimulation in TF-1 human erythroleukemia cells; experiment: JAK1 pathway assay in TF-1 cells (IL-13-pSTAT6, MSD); type: cell-based; settings: Homo sapiens, TF-1, TF-1 cells, read-out: IL13-pSTAT6 EC50_TF-1
Method in brief: as §1

isolated recombinant JAK1 kinase domain, sequence (P23458 875-1153): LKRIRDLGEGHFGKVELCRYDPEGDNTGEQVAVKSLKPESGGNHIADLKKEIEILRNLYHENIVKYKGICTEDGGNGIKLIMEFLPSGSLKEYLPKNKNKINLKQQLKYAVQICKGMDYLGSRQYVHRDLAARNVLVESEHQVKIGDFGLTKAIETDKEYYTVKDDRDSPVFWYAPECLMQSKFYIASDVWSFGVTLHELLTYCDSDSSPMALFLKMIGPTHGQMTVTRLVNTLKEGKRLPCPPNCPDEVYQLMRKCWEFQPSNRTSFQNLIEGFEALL
isolated recombinant JAK2 kinase domain, sequence (O60674 849-1124): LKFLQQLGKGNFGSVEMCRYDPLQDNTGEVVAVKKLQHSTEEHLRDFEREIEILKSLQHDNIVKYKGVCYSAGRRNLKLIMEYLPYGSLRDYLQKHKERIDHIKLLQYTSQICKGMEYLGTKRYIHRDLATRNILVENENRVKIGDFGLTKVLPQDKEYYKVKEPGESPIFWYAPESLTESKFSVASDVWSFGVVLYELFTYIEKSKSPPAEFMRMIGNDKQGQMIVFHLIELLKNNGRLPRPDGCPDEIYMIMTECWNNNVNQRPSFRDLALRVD

Structure (SMILES) | Ki [2] | Ki [3] | EC50 [4] | EC50 [1]
CN1CC2CN(C(=O)Cn3cc(NC(=O)c4c(N)nn5cccnc45)c(-c4cc(Cl)ccc4OC(F)F)n3)CC2C1 (centres unmarked) [Example 9, 2-amino-N-[3-[5-chloro-2-(difluoromethoxy)phenyl]-1-[2-(2-methyl-1,3,3a,4,6,6a-hexahydropyrrolo[3,4-c]pyrrol-5-yl)-2-oxo-ethyl]pyrazol-4-yl]pyrazolo[1,5-a]pyrimidine-3-carboxamide] | 0.71 nM | 0.28 nM | 15.6 nM | 0.554 µM
NC1CCN(C(=O)Cn2cc(NC(=O)c3cnn4cccnc34)c(-c3cc(Cl)ccc3OC(F)F)n2)CC1 [Example 66, N-[1-[2-(4-amino-1-piperidyl)-2-oxo-ethyl]-3-[5-chloro-2-(difluoromethoxy)phenyl]pyrazol-4-yl]pyrazolo[1,5-a]pyrimidine-3-carboxamide] | 0.58 nM |  | 35.6 nM | 0.335 µM
CN(C)C1CCN(c2nc(-c3cc(Cl)ccc3OC(F)F)c(NC(=O)c3cnn4cccnc34)s2)CC1 [Example 188, Pyrazolo[1,5-a]pyrimidine-3-carboxylic acid [4-(5-chloro-2-difluoromethoxy-phenyl)-2-(4-dimethylamino-piperidin-1-yl)-thiazol-5-yl]-amide] | 1.26 nM |  | 5.8 nM | 0.0349 µM
COCCN1CCN(C(=O)Cn2cc(NC(=O)c3cnn4cccnc34)c(-c3cc(Cl)ccc3OC(F)F)n2)CC1 [Example 229, N-[3-[5-chloro-2-(difluoromethoxy)phenyl]-1-[2-[4-(2-methoxyethyl)piperazin-1-yl]-2-oxo-ethyl]pyrazol-4-yl]pyrazolo[1,5-a]pyrimidine-3-carboxamide] | 0.38 nM |  | 3.3 nM | 0.0516 µM
O=C(Nc1cn(CC(=O)N2CCCCC2)nc1-c1cc(Cl)ccc1OC(F)F)c1cnn2cccnc12 [Example 308, N-[3-[5-chloro-2-(difluoromethoxy)phenyl]-1-[2-oxo-2-(1-piperidyl)ethyl]pyrazol-4-yl]pyrazolo[1,5-a]pyrimidine-3-carboxamide] |  | 0.55 nM | 1.5 nM | 0.0236 µM
N#CCCCNC1CCN(C(=O)Cn2cc(NC(=O)c3cnn4cccnc34)c(-c3cc(Cl)ccc3OC(F)F)n2)CC1 [Example 456, N-(3-(5-chloro-2-(difluoromethoxy)phenyl)-1-(2-(4-(3-cyanopropyl-amino)piperidin-1-yl)-2-oxoethyl)-1H-pyrazol-4-yl)pyrazolo[1,5-a]pyrimidine-3-carboxamide] | 0.49 nM | 1.11 nM |  | 0.041 µM
O=C(Nc1cn(CC(=O)N2CCN(CC3CCOCC3)CC2)nc1-c1cc(Cl)ccc1OC(F)F)c1cnn2cccnc12 [Example 458, N-(3-(5-chloro-2-(difluoromethoxy)phenyl)-1-(2-oxo-2-(4-((tetrahydro-2H-pyran-4-yl)methyl)piperazin-1-yl)ethyl)-1H-pyrazol-4-yl)pyrazolo[1,5-a]pyrimidine-3-carboxamide] | 0.47 nM | 0.9 nM |  | 0.0081 µM
O=C(Nc1cn(CC(=O)N2CCN(CCN3CCSCC3)CC2)nc1-c1cc(Cl)ccc1OC(F)F)c1cnn2cccnc12 [Example 460, N-(3-(5-chloro-2-(difluoromethoxy)phenyl)-1-(2-oxo-2-(4-(2-thiomorpholinoethyl)piperazin-1-yl)ethyl)-1H-pyrazol-4-yl)pyrazolo[1,5-a]pyrimidine-3-carboxamide] | 0.39 nM | 1.1 nM |  | 0.0068 µM
CC(F)(F)CNC1CCN(C(=O)Cn2cc(NC(=O)c3cnn4cccnc34)c(-c3cc(Cl)ccc3OC(F)F)n2)CC1 [Example 463, N-(3-(5-chloro-2-(difluoromethoxy)phenyl)-1-(2-(4-(2,2-difluoro-propylamino)piperidin-1-yl)-2-oxoethyl)-1H-pyrazol-4-yl)pyrazolo[1,5-a]pyrimidine-3-carboxamide] | 0.31 nM | 0.7 nM |  | 0.007 µM
CN(CCCC#N)C1CCN(C(=O)Cn2cc(NC(=O)c3cnn4cccnc34)c(-c3cc(Cl)ccc3OC(F)F)n2)CC1 [Example 464, N-(3-(5-chloro-2-(difluoromethoxy)phenyl)-1-(2-(4-((3-cyanopropyl)(methyl)amino)piperidin-1-yl)-2-oxoethyl)-1H-pyrazol-4-yl)pyrazolo[1,5-a]pyrimidine-3-carboxamide] | 0.49 nM | 1.41 nM |  | 0.0095 µM

Continued, in another order:

Ki [2] | Ki [3] | EC50 [4] | Structure (SMILES) | EC50 [1]
0.82 nM | 0.84 nM | 3.5 nM | CC(C)CN1C[C@@H]2CN(C(=O)Cn3cc(NC(=O)c4cnn5cccnc45)c(-c4cc(Cl)ccc4OC(F)F)n3)C[C@@H]2C1 [Example 28, N-[1-[2-[(3aS,6aR)-2-isobutyl-1,3,3a,4,6,6a-hexahydropyrrolo[3,4-c]pyrrol-5-yl]-2-oxo-ethyl]-3-[5-chloro-2-(difluoromethoxy)phenyl]pyrazol-4-yl]pyrazolo[1,5-a]pyrimidine-3-carboxamide] | 0.177 µM
0.66 nM | 0.49 nM | 6.2 nM | O=C(Nc1cn(CC(=O)N2C[C@H]3CN(CC4CCC(F)(F)CC4)C[C@H]3C2)nc1-c1cc(Cl)ccc1OC(F)F)c1cnn2cccnc12 [Example 33, N-[1-[2-[(3aR,6aS)-2-[(4,4-difluoro-cyclohexyl)methyl]-1,3,3a,4,6,6a-hexahydropyrrolo[3,4-c]pyrrol-5-yl]-2-oxo-ethyl]-3-[5-chloro-2-(difluoromethoxy)phenyl]pyrazol-4-yl]pyrazolo[1,5-a]pyrimidine-3-carboxamide] | 0.0485 µM
 |  | 87.9 nM | C[N+](C)(CCCc1ccccc1)C1CCN(C(=O)Cn2cc(NC(=O)c3cnn4cccnc34)c(-c3cc(Cl)ccc3OC(F)F)n2)CC1 [Example 124, [1-[2-[3-[5-chloro-2-(difluoromethoxy)phenyl]-4-(pyrazolo[1,5-a]pyrimidine-3-carbonylamino)pyrazol-1-yl]acetyl]-4-piperidyl]-dimethyl-(3-phenylpropyl)ammonium] | 0.535 µM
0.4 nM | 0.84 nM |  | N#CCCCN1CCN(C(=O)Cn2cc(NC(=O)c3cnn4cccnc34)c(-c3cc(Cl)ccc3OC(F)F)n2)CC1 [Example 461, N-(3-(5-chloro-2-(difluoromethoxy)phenyl)-1-(2-(4-(3-cyanopropyl)piperazin-1-yl)-2-oxoethyl)-1H-pyrazol-4-yl)pyrazolo[1,5-a]pyrimidine-3-carboxamide] | 0.0117 µM
0.38 nM | 0.86 nM |  | N#CC1CCN(C2CCN(C(=O)Cn3cc(NC(=O)c4cnn5cccnc45)c(-c4cc(Cl)ccc4OC(F)F)n3)CC2)CC1 [Example 462, N-(3-(5-chloro-2-(difluoromethoxy)phenyl)-1-(2-(4-cyano-1,4′-bipiperidin-1′-yl)-2-oxoethyl)-1H-pyrazol-4-yl)pyrazolo[1,5-a]pyrimidine-3-carboxamide] | 0.0108 µM
0.24 nM | 0.56 nM |  | CN(CC(C)(C)C#N)C1CCN(C(=O)Cn2cc(NC(=O)c3cnn4cccnc34)c(-c3cc(Cl)ccc3OC(F)F)n2)CC1 [Example 465, N-(3-(5-chloro-2-(difluoromethoxy)phenyl)-1-(2-(4-((2-cyano-2-methylpropyl)(methyl)amino)piperidin-1-yl)-2-oxoethyl)-1H-pyrazol-4-yl)pyrazolo[1,5-a]pyrimidine-3-carboxamide] | 0.0114 µM

— US9346815B2, “5-chloro-2-difluoromethoxyphenyl pyrazolopyrimidine compounds, compositions and methods of use thereof” (Genentech, Inc., priority 2014, dated 2016)
